The values that follow are results of earlier work, collected in patent US6858221B2, “Intravascular delivery of mycophenolic acid” (Avantec Vascular Corporation, priority 2000, dated 2005).

Structures are written as SMILES.

Broadly, the IC50 is the concentration needed to halve the response being measured.

The data set concerns Human SMC. To be noted: dose range 0.1 nM-1 μM, Mohacsi et al. 1997.

For the compound `CO[C@H]1C[C@@H]2CC[C@@H](C)[C@@](O)(O2)C(=O)C(=O)N2CCCC[C@H]2C(=O)O[C@H]([C@H](C)C[C@@H]2CC[C@@H](O)[C@H](OC)C2)CC(=O)[C@H](C)/C=C(\C)[C@@H](O)[C@@H](OC)C(=O)[C@H](C)C[C@H](C)/C=C/C=C/C=C/1C` [Rapamycin, rapamycin], the IC50 is 1 nM.
